{
  "source": "patent US10100079B2",
  "about": "“Progesterone-cationic lipid hybrid as anticancer agent and the process of synthesis thereof” (Council of Scientific & Industrial Research, priority 2016, dated 2018)",
  "key": {"T47D": {"tested_on": "T47D", "assay": "Apoptosis by flow cytometry (annexin V-FITC/PI), T47D", "format": "cell-based, human", "settings": "10 μM, 36 h", "protocol": "(§1) Apoptosis study was performed by flow cytometry using annexin V-FITC-labeled apoptosis detection kit (Sigma) following manufacturer's protocol. Cells (□×□□^□ cells/well) were seeded in six-well plates and incubate for 16-18 h. After 16-18 h, cells were either kept untreated or treated with 10 μM compound 1 and 10 μM 6c for 36 h. Next, cells were trypsinized and washed with PBS. Then the cells were re-suspended in 1× binding buffer at a density of 1×10^6 cells/ml and stained simultaneously with FITC-labeled annexin V (25 ng/ml) and propidium iodide (50 ng/ml). After 15 min incubation, cells were analyzed using a flow cytometer (FACS Canto II, Becton-Dickinson, San Jose, Calif., USA), and data were analyzed with FCS Express V3 software. Minimum of 10000 events were gated per sample."}, "B16F10": {"tested_on": "B16F10", "assay": "Apoptosis by flow cytometry (annexin V-FITC/PI), B16F10", "format": "cell-based, murine", "settings": "B16F10, 10 μM, 36 h", "protocol": "as §1"}, "CHO": {"tested_on": "CHO", "assay": "Apoptosis by flow cytometry (annexin V-FITC/PI), CHO", "format": "cell-based, Chinese hamster", "settings": "10 μM, 36 h", "protocol": "as §1"}, "[1]": {"tested_on": "apoptosis related protein in B16F10 cells", "assay": "Western blot of B16F10 cell lysates: apoptosis related protein (FIG. 4A)", "format": "cell-based, murine", "settings": "B16F10, 10 μM, 36 h", "protocol": "(§2) For in vitro cell lysate preparation, B16F10 cells were either treated with compound 1 (10 μM), 6c (10 μM) or kept untreated for 36 h continuously. After that cells were washed with cold PBS for two times, and lysed by incubating for 30 min on ice with ice-cold RIPA lysis buffer (50 mM Tris [pH 7.5], 1% NP-40, 150 mM NaCl, 0.1% sodium dodecyl sulfate [SDS], 0.5% sodium deoxycholate) containing 1% proteinase inhibitor cocktails (PIC) (Cell Signaling Technology). Following 30 min of incubation cells were centrifuged at 14,000 rpm at 4° C. for 15 minutes, supernatant was collected, and Protein concentration was measured by using BCA assay a kit (thermo scientific). For in vivo whole cell lysate, after completion of the in vivo experiment one C57BL/6J mice with representative tumor size from each group was sacrificed and tumor was collected, lysed by ice-cold RIPA buffer with 1% PIC, whole cell lysate was prepared following the same steps as mentioned above. Respective cell lysates were run in SDS-PAGE gel (8%-15%) and then the bands were transferred to polyvinylidene fluoride (PVDF) membrane. Membranes were then first incubated with respective primary antibodies and then with alkaline phosphates conjugated secondary antibody (Goat-anti-rabbit and Goat-anti-mouse). Immunodetection was performed with BCIP/NBT substrate (Sigma-Aldrich).\n(§3) Cytochrome-C (4272S), BAX (2772S), Bcl-2 (2876S), Cassepase-3 (9665S), β-actin (8457S), PI3K-p110α (4249S), PI3K-p85 (4257S), AKT (272S), p-AKT (4060S), PTEN (9552S), p-mdm2 (3521S), p53 (2524S), GAPDH (5174S) were purchased from Cell Signaling Technology; Casepase-9 (PA5-16358) was purchased from Pierce; mdm2 (ab38618) was purchased from Abcam; secondary antibodies mouse anti-rabbit IgG-PE (sc-3753) was purchased from Santa Cruz Biotechnology; Goat anti-mouse IgG Alkaline Phosphatase (DC05L) and goat anti-rabbit IgG Alkaline Phosphatase (DC06L) were purchased from Calbiochem."}, "[2]": {"tested_on": "PI3K/AKT pathway involving protein in B16F10 cells", "assay": "Western blot of B16F10 cell lysates: PI3K/AKT pathway involving protein (FIG. 4B)", "format": "cell-based, murine", "settings": "B16F10, 10 μM, 36 h", "protocol": "as §2, §3"}, "B16F10 tumor": {"tested_on": "B16F10 tumor", "assay": "In vivo tumor study, B16F10 melanoma model", "design": "species or system C57BL6/J mice", "settings": "15 mg/Kg i.p., 5 injections", "protocol": "6-8 weeks old female C57BL6/J mice, obtained from CCMB (Hyderabad, India), were subcutaneously inoculated with 2.5×10^5 B16F10 cells in the lower left abdomen. Thirteen days after B16F10 cell inoculation, mice were grouped as per the treatment where each group contained 5 mice. The groups were as follows (i) untreated group, (ii) treated with progesterone (compound 1) (6 mg/Kg) and (iii) 6c (15 mg/Kg). Each compound suspended in PBS containing 10% DMSO and injected intraperitoneally to the respective mice. Five injections were given with a gap of 2 days. The tumor sizes were measured in volume (mm^3) and calculated using the formula (0.5ab^2), where ‘a’ represents the longest dimension and ‘b’ is the shortest dimension of the tumors. Experiment was terminated when the average tumor volume of the untreated group reached ˜4000 mm^3. All animal work was done following the protocols approved by Institutional Animal Ethical Committee of CSIR-IICT, India."}},
  "data": [
    {"smiles": "CCCCCCCCCC[N+](C)(CCCCCCCCCC)CCNC(=O)CCC(=O)O[C@@H](C)[C@H]1CCC2C3CCC4=CC(=O)CC[C@]4(C)C3CC[C@@]21C", "note": "(stereo partly drawn) [Compound 6c, N-decyl-N-(2-(4-((1S)-1-((10R,13S,17S)-10,13-dimethyl-3-oxo-2,3,6,7,8,9,10,11,12,13,14, 15,16,17-tetradecahydro-1H-cyclopenta[a]phenanthren-17-yl)ethoxy)-4-oxobutanamido)ethyl)-N-methyldecan-1-aminium chloride]", "values": [
      {"measurement": "apoptotic cell", "setting": "T47D", "result": 73, "unit": "%"},
      {"measurement": "apoptotic cell", "setting": "B16F10", "result": 53.22, "unit": "%"},
      {"measurement": "apoptosis in normal cell", "setting": "CHO", "result": "largely remains unaffected"},
      {"measurement": "BAX/Bcl-2 ratio compared to untreated group", "setting": "[1]", "result": "~4", "unit": "fold"},
      {"measurement": "caspase 3 expression", "setting": "[1]", "result": "increase in level"},
      {"measurement": "caspase 9", "setting": "[1]", "result": "formation of active caspase 9"},
      {"measurement": "cytochrome C expression", "setting": "[1]", "result": "elevated expression"},
      {"measurement": "PTEN protein expression", "setting": "[2]", "result": "elevated expression"},
      {"measurement": "expression of catalytic and regulatory subunit of PI3K protein", "setting": "[2]", "result": "decrease in the expression"},
      {"measurement": "p53 expression level", "setting": "[2]", "result": "elevated the expression level"},
      {"measurement": "p-AKT level compared to PR treated group", "setting": "[2]", "result": "significant reduction"},
      {"measurement": "pMdm2 level", "setting": "[2]", "result": "reduced"},
      {"measurement": "tumor growth and aggression versus UT and progesterone-treated groups", "setting": "B16F10 tumor; B16F10 in C57BL6/J mice", "result": "significant inhibition"},
      {"measurement": "tumor size of UT group compared to treated group", "setting": "B16F10 tumor; day 25 from tumor cell inoculation", "result": "~4", "unit": "times"}
    ]}
  ]
}
